Measured values published in US20160201132A1, “GENE EXPRESSION BIOMARKERS OF LAQUINIMOD RESPONSIVENESS” (Teva Pharmaceutical Industries Ltd., priority 2013, published 2016).

Tests used:
PAI-1 (Serpine 1) = assay: Western blot verification of PAI-1 (Serpine 1) protein in PBMC of LAQ-treated patients; assay type: in vivo, human; conditions: four out of five patients, after 6 months of LAQ treatment
Description: FIG. 6: Expression of PAI-1 (Serpine 1) in PBMCs of patients following treatment with LAQ. Protein samples were prepared from phenol/ethanol fractions of PBMCs derived from patients after 6 month of LAQ treatment (+) and compare to PBMCs samples of the same patients before treatment (−) (A). From each sample […] was separated on 10% SDS-PAGE. Blots were incubated with Rabbit a-PAI-1 (1:500) and mouse Tubulin (1:500). The signal intensities of a protein band and its surrounding background were scanned for each protein and quantified by using Quantity One 4.6.9 software. The resultant background-subtracted values of protein expression were normalized to those of Tubulin and then plotted as the relative protein levels for each patient with or without LAQ treatment (B).
For verification of key genes on protein level Western blot analysis was performed. Supernatant was collected and protein concentration was determined using a Bradford assay (Pierce, Rockford, Ill., USA) according the manufacturer's guidelines. Equal amounts of protein were suspended in sample buffer and boiled for 5 min. Cell lysates were resolved on 10% SDS-polyacrylamide gel electrophoresis (PAGE). […] The blots were then washed three times with TBST buffer and analyzed by standard chemiluminescence (Supersignal Kit, Pierce, Rockford, Ill., USA) according to the company's protocol.

RRMS patients [1] = conditions: 106 RRMS patients vs 102 placebo treated RRMS patients; cited from earlier work
CXCR1 = assay: Western blot verification of CXCR1 protein in PBMC of LAQ-treated RRMS patients; assay type: in vivo, human; conditions: six months of LAQ treatment vs baseline, n=5
Description: (§1) FIG. 10: Expression of TGFb, ITGB1 and CXCR1 in RRMS patients treated with LAQ. Protein extracts were prepared from PBMCs samples derived from RRMS patients before treatment (black bars) and compared to PBMCs samples of the same patients after six months of LAQ treatment (white bars). The signal intensity of a protein bands were quantified by Quantity One 4.6.9 software. The resultant background-subtracted values of protein expression were normalized to those of Tubulin and then calculated as the relative protein levels for each patient before or after LAQ treatment. The blot images in A, B and C are representative of two out of five analyzed patients showing down regulation of TGFb, ITGB1 and CXCR1, respectively as also quantified by densitometry of bands analyzed from five patients. Data are presented as mean±SEM. Statistically significant differences are marked in graphs (n=5, paired one-tailed t-test). Protein fractions were purified from PBMC of 5 patients at baseline and after six months of LAQ treatment. Proteins were extracted from TRIZOL fractions and solubilized following the method reported by Hummon et al., 2007 (Hummon et al., 2007). […] Blots were analyzed by standard chemi-luminescence (Supersignal Kit, Pierce, Rockford, Ill., USA) and visualization was done by ChemiDoc™ XRS System (Bio-Rad).

ITGB1 = assay: Western blot verification of ITGB1 protein in PBMC of LAQ-treated RRMS patients; assay type: in vivo, human; conditions: six months of LAQ treatment vs baseline, n=5
Description: as §1

RRMS patients [2] = conditions: cited from earlier work

CCN(C(=O)c1c(O)c2c(Cl)cccc2n(C)c1=O)c1ccccc1 [LAQ, 5-chloro-N-ethyl-4-hydroxy-1-methyl-2-oxo-N-phenyl-1,2-dihydroquinoline-3-carboxamide]
reduced expression of PAI-1 protein (band intensities normalized against tubulin) (PAI-1 (Serpine 1)): 30-50%
reduction in the cumulative number of gadolinium enhanced lesions in brain MRI (RRMS patients [1]): about 40%
down regulation of CXCR1 protein (CXCR1): 24.7%
down regulation of ITGB1 protein (ITGB1): 40%
annualized relapse rate (RRMS patients [2]; RRMS patients treated for 24 months): modestly decreased
safety and tolerability profile (RRMS patients [2]; two phase III trials (BRAVO, ALLEGRO)): favorable
